Results from PubChem BioAssay (NCI).
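These data come from cells grown in 96-well plates and exposed to compound for 48 hours at five concentrations. The concentration for 50% growth inhibition is given as GI50. TGI denotes the concentration required for complete inhibition of growth.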

Key:
Assay in all cases: NCI-60 cell line screen, 48 h
ACHN renal = tested on: ACHN renal
CAKI-1 renal = tested on: CAKI-1 renal
COLO 205 colon = tested on: COLO 205 colon
HCT-15 colon = tested on: HCT-15 colon
NCI-H522 lung = tested on: NCI-H522 lung
OVCAR-3 ovarian = tested on: OVCAR-3 ovarian
OVCAR-4 ovarian = tested on: OVCAR-4 ovarian
SF-539 CNS = tested on: SF-539 CNS
SN12C renal = tested on: SN12C renal
TK-10 renal = tested on: TK-10 renal

Row | Compound | GI50 (ACHN renal) [nM] | TGI (ACHN renal) [µM] | GI50 (CAKI-1 renal) [nM] | TGI (CAKI-1 renal) [µM] | GI50 (COLO 205 colon) [nM] | TGI (COLO 205 colon) [µM] | GI50 (HCT-15 colon) [nM] | TGI (HCT-15 colon) [µM] | GI50 (NCI-H522 lung) [nM] | TGI (NCI-H522 lung) [µM] | GI50 (OVCAR-3 ovarian) [nM] | TGI (OVCAR-3 ovarian) [µM] | GI50 (OVCAR-4 ovarian) [nM] | TGI (OVCAR-4 ovarian) [µM] | GI50 (SF-539 CNS) [nM] | TGI (SF-539 CNS) [µM] | GI50 (SN12C renal) [nM] | TGI (SN12C renal) [µM] | GI50 (TK-10 renal) [nM] | TGI (TK-10 renal) [µM]
1 | N#Cc1nc(-c2ccc(F)cc2)oc1S(=O)(=O)N1CCCCC1 | 1760 | 3.15 | 1660 | 3.03 | 2070 | 4.2 | 1590 | 3.37 | 927 | 3.1 | 1860 | 3.48 | 2190 | 4.76 | 1730 | 3.12 | 1650 | 3.11 | 1780 | 3.27
2 | CCCn1c(SCCSc2c3ccccc3c(-c3nc(F)nc(F)n3)n2CCC)c2ccccc2c1-c1nc(F)nc(F)n1 | – | > 100 | – | > 100 | – | > 100 | – | > 100 | – | > 100 | – | > 100 | – | > 100 | – | > 100 | – | > 100 | – | > 100
3 | Fc1ccc(-c2ncn(C3CCNCC3)c2-c2ccnc(Oc3ccc4c(c3)OCO4)n2)cc1 | 8820 | > 25 | > 20900 | > 25 | 9250 | > 25 | 21100 | > 25 | > 25000 | > 25 | > 25000 | > 25 | 19700 | > 25 | > 25000 | > 25 | 16700 | > 25 | > 25000 | > 25
4 | CN1C(=O)c2ccc3ccccc3c2C1=O | – | > 100 | – | > 100 | – | > 100 | – | > 100 | – | > 100 | – | > 100 | – | > 100 | – | > 100 | – | > 100 | – | > 100
5 | O=C(/C=C(\O)C(=O)O)/C=C(\O)c1ccccc1 | > 1000 | > 100 | – | > 100 | > 1000 | > 25.9 | > 1000 | > 100 | > 1000 | > 1 | > 1000 | > 46.4 | > 1000 | > 100 | < 1000 | > 1 | > 1000 | > 100 | > 1000 | > 100
6 | COc1ccc([C@H](CC(=O)O)N2CCN(CCCc3ccc4c(n3)NCCC4)C2=O)cn1 | > 52000 | > 100 | 2710 | > 100 | > 100000 | > 100 | 311 | – | 114 | 0.267 | > 100000 | > 100 | > 100000 | > 100 | > 100000 | > 100 | 515 | – | 16.7 | 0.0795
7 | CC1=CC2C(C(O)CC3(C)C2CC(C)C32OCOC23COCO3)C2(C)C/C(=C/O)C(=O)C=C12 (configuration not stated) | 1850 | 3.45 | 1940 | 3.8 | 1970 | 3.47 | 1970 | 5.07 | 1790 | 3.47 | 2050 | 3.59 | 1740 | 3.83 | 1930 | 3.64 | 2500 | 6.39 | 1910 | 3.59
